# Laboratory results published in the supplement of paper PMC11451515.
# System: SEM cells
# Experiment: cell viability relative to DMSO control; higher = less cytotoxic
# Conditions: 48 h
# In short: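 In 1536-well plates, 5 μl of leukemia cells were seeded per well: 500 cells/well for NOMO1 or SEM and 1000 cells/well for P12-Ichikawa. Each line had first been adapted for at least four passages in each medium. Library compounds in DMSO were pin-dosed at 11 threefold concentrations between 47 μM and 0.79 nM, and CellTiter-Glo One luminescence was read after 48 h at 37°C. Viability is a per-plate percentage relative to DMSO wells, with cell-free wells as background.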
# [1] = HPLM + 10% dialyzed FBS, 0.000781 µM
# [2] = HPLM + 10% dialyzed FBS, 0.00234 µM
# [3] = HPLM + 10% dialyzed FBS, 0.00702 µM
# [4] = HPLM + 10% dialyzed FBS, 0.0211 µM
# [5] = HPLM + 10% dialyzed FBS, 0.0632 µM
# [6] = HPLM + 10% dialyzed FBS, 0.19 µM
# [7] = HPLM + 10% dialyzed FBS, 0.569 µM
# [8] = HPLM + 10% dialyzed FBS, 1.71 µM
# [9] = HPLM + 10% dialyzed FBS, 5.12 µM
# [10] = HPLM + 10% dialyzed FBS, 15.4 µM
# [11] = HPLM + 10% dialyzed FBS, 46.1 µM
# [12] = RPMI 5 mM glucose + 10% FBS, 0.000781 µM
# [13] = RPMI 5 mM glucose + 10% FBS, 0.00234 µM
# [14] = RPMI 5 mM glucose + 10% FBS, 0.00702 µM
# [15] = RPMI 5 mM glucose + 10% FBS, 0.0211 µM
# [16] = RPMI 5 mM glucose + 10% FBS, 0.0632 µM
# [17] = RPMI 5 mM glucose + 10% FBS, 0.19 µM
# [18] = RPMI 5 mM glucose + 10% FBS, 0.569 µM
# [19] = RPMI 5 mM glucose + 10% FBS, 1.71 µM
# [20] = RPMI 5 mM glucose + 10% FBS, 5.12 µM
# [21] = RPMI 5 mM glucose + 10% FBS, 15.4 µM
# [22] = RPMI 5 mM glucose + 10% FBS, 46.1 µM
# [23] = RPMI 5 mM glucose + 10% dialyzed FBS, 0.000781 µM
# [24] = RPMI 5 mM glucose + 10% dialyzed FBS, 0.00234 µM
# [25] = RPMI 5 mM glucose + 10% dialyzed FBS, 0.00702 µM
# [26] = RPMI 5 mM glucose + 10% dialyzed FBS, 0.0211 µM
# [27] = RPMI 5 mM glucose + 10% dialyzed FBS, 0.0632 µM
# [28] = RPMI 5 mM glucose + 10% dialyzed FBS, 0.19 µM
# [29] = RPMI 5 mM glucose + 10% dialyzed FBS, 0.569 µM
# [30] = RPMI 5 mM glucose + 10% dialyzed FBS, 1.71 µM
# [31] = RPMI 5 mM glucose + 10% dialyzed FBS, 5.12 µM
# [32] = RPMI 5 mM glucose + 10% dialyzed FBS, 15.4 µM
# [33] = RPMI 5 mM glucose + 10% dialyzed FBS, 46.1 µM
Structure (SMILES),cell viability [1] [%],cell viability [2] [%],cell viability [3] [%],cell viability [4] [%],cell viability [5] [%],cell viability [6] [%],cell viability [7] [%],cell viability [8] [%],cell viability [9] [%],cell viability [10] [%],cell viability [11] [%],cell viability [12] [%],cell viability [13] [%],cell viability [14] [%],cell viability [15] [%],cell viability [16] [%],cell viability [17] [%],cell viability [18] [%],cell viability [19] [%],cell viability [20] [%],cell viability [21] [%],cell viability [22] [%],cell viability [23] [%],cell viability [24] [%],cell viability [25] [%],cell viability [26] [%],cell viability [27] [%],cell viability [28] [%],cell viability [29] [%],cell viability [30] [%],cell viability [31] [%],cell viability [32] [%],cell viability [33] [%]
C=CC(=O)Nc1cc2c(Nc3ccc(F)c(Cl)c3)ncnc2cc1OCCCN1CCOCC1,112,107,112,128,110,124,114,90.3,55,39.2,26.7,87.7,81.5,85.3,84,73.1,78.6,80.2,68.6,41.7,24.2,42.9,119,114,95.4,127,112,110,108,89,56.3,29.1,58.8
NC(=O)c1ccc(N(C(N)=O)c2c(F)cccc2F)nc1-c1ccc(F)cc1F,85.2,81.2,88.2,79.5,89.5,94,106,99.7,88.5,51.7,77.5,116,88.8,80.1,97.4,119,95,89,104,102,52.3,94.9,87.6,86.7,89.4,94.7,93.2,94.9,88.3,100,92.1,41.1,66.8
NC[C@H]1O[C@H](O[C@@H]2[C@H](O)[C@@H](O[C@H]3O[C@H](CO)[C@@H](O)[C@H](N)[C@H]3O)[C@H](N)C[C@@H]2N)[C@H](O)[C@@H](O)[C@@H]1O,96.6,93.3,100,24,88.6,105,105,96.8,105,90.1,87.3,,,,,,,,,,,,115,125,124,23,113,83.3,107,113,105,104,92.4
Cc1cc2c(C(N)=O)cccc2n1-c1nc2c(c(NCc3ccccc3)n1)COCC2,89.6,95.4,73,87.2,93.5,93.3,84.9,38.7,3.03,2.9,3.03,,,,,,,,,,,,94.5,105,85.5,87.7,101,99.4,95.8,24.1,3.45,3.44,3.1
COC1=CC=C(C(=C1)OC(C)C)C/2=N/[C@@H]([C@@H](N2C(=O)N3CCNC(=O)C3)C4=CC=C(Cl)C=C4)C5=CC=C(Cl)C=C5,92.4,110,112,106,87.1,56.5,42.5,33.1,29.2,16.1,5.42,100,125,99.9,105,60.6,55.6,46.5,34.5,23.6,6.03,1.48,101,106,101,83.5,79.8,45.1,41.1,27.8,20.5,12.3,3.12
